# From PMC9253215, “A new strategy: identification of specific antibodies for neutralizing epitope on SARS-CoV-2 S protein by LC-MS/MS combined with immune repertoire” (Molecular Biomedicine, 2022)
# Ends that are not written are not given here.
# Columns and labels:
# [1] = tested on: SARS-CoV-2 pseudovirus; format: cell-based
# [2] = tested on: SARS-CoV-2
# [3] = target: T1, S1 protein (Severe acute respiratory syndrome coronavirus 2, UniProt P0DTC2); assay: biochemical; format: binding, SARS-CoV-2
# T1 construct: Purified S1 protein was first immobilized on a series S sensor chip protein A; purchased OkayBio
Sequence,neutralizing ability by pseudovirus neutralizing assay [1],neutralizing ability by authentic virus neutralization assays [2],neutralizing activity against SARS-CoV-2 by IFA assay [2],Kd [3],IC50 ([2]; 24 h)
AKDFRQYCSSTTCYDLDY [CDR3 peptide 21],showed neutralizing ability,showed neutralizing ability,obvious neutralizing activity,–,–
ARDIVVPAAMGEIGGWFDP [CDR3 peptide 16],–,–,–,24.1 µM,–
TTDRYQLLWAG [CDR3 peptide 22],showed neutralizing ability,showed neutralizing ability,obvious neutralizing activity,–,–
ARESLYDFDGSGYVDALDV [CDR3 peptide 11],–,–,–,0.262 µM,–
ARDVSSLYGGNSDDY [CDR3 peptide 24],–,–,no neutralizing activity,–,–
VRYSPEPAVLITEGYFD [CDR3 peptide 4],showed neutralizing ability,showed neutralizing ability,modestly lower neutralizing activity,–,–
YYCQSYDSSNVV [CDR3 peptide 47],showed neutralizing ability,showed neutralizing ability,modestly lower neutralizing activity,–,–
EAWDVDNRVFGGGTR [CDR3 peptide 51],–,–,obvious neutralizing activity,–,1.25 to 2.5 mg/mL
YYCQQYDNLSGT [CDR3 peptide 44],showed neutralizing ability,showed neutralizing ability,modestly lower neutralizing activity,–,–
VRERISYFDHWGQG [CDR3 peptide 53],–,–,obvious neutralizing activity,–,–
ARERADDYSNYCWFDP [CDR3 peptide 12],showed neutralizing ability,showed neutralizing ability,obvious neutralizing activity,–,–
